Source: patent publication US9827255B2, “Fumagillol derivatives” (Takeda Pharmaceutical Company Limited, priority 2014, dated 2017)
Like-named read-outs stand apart in the source and are kept apart here.

Assays:
[1] = Body weight loss in high-fat diet C57bl/6 mice; format: in vivo; settings: once daily, 28 days, oral gavage, male C57bl/6 mice on high-fat diet, BW loss relative to pretreatment
Description: Ten to twelve weeks old male C57bl/6 mice are obtained from commercial vendors, and placed on high-fat diet (60% kcal fat) for at least 15 weeks. Treatment with MetAP2 inhibitors is initiated when the average body weight reaches approximately 50 g. The MetAP2 inhibitors are formulated in an aqueous solution of 0.5% methyl cellulose and administered through oral gavage. Control animals receive the equivalent volume of aqueous 0.5% methyl cellulose solution without a MetAP2 inhibitor. Body weight (BW) and food intake are recorded daily, and efficacy is calculated individually as a percentage of BW loss relative to the pretreatment values. Depending on the study design, the treatment is continued for 12, 14 or 28 days. In some studies, indirect calorimetry or body composition are determined at the end of the treatment.
TABLE 2 lists body weight loss (BWL) in mice following treatment with some of the compounds shown in the examples. The compounds shown in TABLE 2 were tested in accordance with the BWL protocol described in the specification beginning at page 36, using the dose, dosing regimen (frequency), and treatment duration indicated in table.

[2] = Hypoglycemic activity in KKA^y mice; format: in vivo; settings: 10 mg/kg once daily oral gavage, 4-week treatment, male KKA^y mice, mean±SD of 8 animals, p < 0.025 vs. control
Method: Six-week-old male KKA^y mice are obtained from commercial vendors and placed on standard chow. Treatment with a MetAP2 inhibitor is initiated after 8-day acclimization. The MetAP2 inhibitor is formulated in an aqueous 0.5% methylcellulose solution, which is administered once daily through oral gavage. Control animals are treated with the equivalent volume of aqueous 0.5% methylcellulose solution without the compound. After 4 weeks, blood is collected from the tail vein of each of the mice. Glycated hemoglobin levels are measured using a Tosoh HLC-723G8 automated glycohemoglobin analyzer, and plasma glucose levels are measured using a Hitachi model 7180 automated glucose analyzer. For evaluation of the hypoglycemic activity of the MetAP2 inhibitor, statistical differences between control- and compound-treated groups are analyzed using a one-tailed Williams test.
TABLE 3 lists glycated hemoglobin (GHb) and plasma glucose (PG) levels in KKA^y mice after a 4-week treatment with the compound shown in Example 1. The study was conducted in accordance with the protocol described in the specification beginning at page 37, using the dose indicated in table. Values are indicated by mean±standard deviation of 8 animals in each group.

[3] = target: T1, MetAP2 (Homo sapiens, UniProt P50579); experiment: MetAP2 cellular activity: Western blotting of NMet-14-3-3γ in HUVEC cells; format: cell-based; parameters: host or cells: HUVEC; settings: 24 hours, ratio of unprocessed N-Met14-3-3γ over β-actin, read-out: MetAP2 Cell pEC50 (converted)
T1 sequence (P50579 whole entry): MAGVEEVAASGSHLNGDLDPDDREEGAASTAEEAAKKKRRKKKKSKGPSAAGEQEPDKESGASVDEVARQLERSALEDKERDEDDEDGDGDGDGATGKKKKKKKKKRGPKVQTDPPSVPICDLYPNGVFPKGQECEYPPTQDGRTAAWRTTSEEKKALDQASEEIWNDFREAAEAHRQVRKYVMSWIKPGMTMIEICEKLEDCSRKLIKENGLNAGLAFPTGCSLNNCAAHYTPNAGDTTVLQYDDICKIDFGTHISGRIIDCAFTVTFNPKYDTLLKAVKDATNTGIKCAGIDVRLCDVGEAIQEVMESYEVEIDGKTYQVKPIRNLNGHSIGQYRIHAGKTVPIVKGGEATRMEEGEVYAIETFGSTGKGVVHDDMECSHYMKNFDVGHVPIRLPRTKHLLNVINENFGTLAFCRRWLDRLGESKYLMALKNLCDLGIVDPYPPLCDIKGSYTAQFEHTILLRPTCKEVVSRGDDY
Method: HUVEC cells (Lonza) are seeded in 96-well tissue culture microplates and cultured for 24 hours prior to addition of test compounds (11 point range of serial dilutions) or DMSO vehicle. After 24 hours, whole cell extracts are prepared by lysing cells in cell extraction buffer (Cell Signaling) containing protease and phosphatase inhibitors (Calbiochem). Insoluble material is removed by centrifugation and samples are diluted and boiled in SDS-PAGE buffer. Proteins are resolved by SDS-PAGE and transferred to PVDF membranes. Membranes are blocked then incubated with the appropriate primary antibodies, NMet-14-3-3γ (Novus) and β-actin (Sigma), followed by incubation with secondary IRDye 680- or 800CW-conjugated antibodies (Li-Cor). Membranes are scanned on the Odyssey (Li-Cor) and signals corresponding to N-Met14-3-3γ and β-actin are quantified using LiCor software. Compound EC50s are obtained by curve-fitting the ratios of unprocessed N-Met14-3-3γ protein signal over β-actin protein signal using XLfit4 Microsoft Excel curve-fitting software and are reported as pEC50, i.e., −log(EC50), where EC50 is the molar concentration at 50% effective (maximal) response.
TABLE 1 lists MetAP2 inhibition for some of the compounds shown in the examples, where larger pIC50 and pEC50 values represent higher potency. The compounds shown in TABLE 1 were tested in accordance with the enzyme assay (pIC50) described in the specification beginning at page 35, in which the MetAP2 enzyme is complexed with cobalt or manganese ions, and in accordance with the cellular assay (pEC50) described in the specification beginning at page 36.

[4] = target: T1, MetAP2; experiment: Enzyme assay: inhibition of MetAP2 (Met-AMC substrate, fluorescence); format: biochemical; parameters: made in house; host or cells: Spodoptera frugiperda Sf9 cells (baculovirus, pFastBac)
Method: DNA encoding the full-length sequence of human MetAP2 enzyme is amplified by PCR and cloned into a pFastBac expression vector (Invitrogen). Recombinant baculovirus incorporating the MetAP2 construct is generated by transposition using the Bac-to-Bac system (Invitrogen). The expression of recombinant protein is carried out by infection of Spodoptera frugiperda Sf9 cells (Invitrogen) in 5 L Wave Bioreactors (Wave Biotech). Recombinant protein is isolated from cellular extracts by binding to an SP Hitrap Fast Flow or SP Sepharose (Sigma) column, and the protein is eluted using a NaCl gradient. Partially purified extracts of MetAP2 are further purified by an AKTA FPLC over a Superdex-200 column (GE). The purity of MetAP2 protein is determined on denaturing SDS-PAGE gel. Purified MetAP2 protein is concentrated to a final concentration of 17 mg/mL or 2.5 mg/mL. The protein is stored at −78° C. in a buffer containing 10 mM HEPES pH 7.4, 150 mM NaCl, and 1 mM CoCl2 or in a buffer containing 20 mM HEPES pH 7.4, 120 mM NaCl, and 5 mM MnCl2.
The inhibition of MetAP2 is determined using a black 384-well-plate format under the following reaction conditions: 50 mM Hepes pH 7.5, 100 mM NaCl, 10 μM MnCl2 or 10 μM CoCl2, 0.005% Brij35®, 1 mM TCEP, 1% DMSO. To initiate the assay, 4 μL of 5 to 50 nM MetAP2 enzyme solution (enzyme final concentration is 2 to 20 nM) is added to each well, followed by the addition of 2 μL of the test compound (2.5-fold serial dilutions for 11 data points for each test compound) in a buffer solution containing 5% DMSO. Next, 4 μL of a substrate solution (2.5×Km of Met-AMC) is added to each well of the plate (final substrate concentration at Km value). The reaction rate is monitored by reading fluorescence at 460 nm with excitation wavelength at 330 nm for 10 to 30 minutes using a fluorescence plate reader. The results for each well are expressed as percent inhibition and calculated using the equation: […]

[5] = MetAP2 enzyme complexed with cobalt ions, read-out: MetAP2 Co pIC50 (converted)

IC50 ([4]; MetAP2 enzyme complexed with manganese ions, read-out: MetAP2 Mn pIC50 (converted)) | SMILES | BWL ([1]; 3 mg/kg) | GHb (glycated hemoglobin) ([2]; control 6.8 ± 0.4) | PG (plasma glucose) ([2]; control 436.6 ± 64.4) | EC50 [3] | IC50 [4, 5] | BWL ([1]; 1 mg/kg)
200 nM | CO[C@@H]1[C@H](OCCP(=O)(c2ccccc2)c2ccccc2)CC[C@]2(CO2)[C@H]1[C@@]1(C)O[C@@H]1CC=C(C)C [Example 1, (2-(((3R,4S,5S,6R)-5-methoxy-4-((2R,3R)-2-methyl-3-(3-methylbut-2-en-1-yl)oxiran-2-yl)-1-oxaspiro[2.5]octan-6-yl)oxy)ethyl)diphenylphosphine oxide] | 18% | 5.6 ± 0.4 % | 296.5 ± 77.4 mg/dL | 4.79 nM | 44.7 nM | –
– | CO[C@@H]1[C@H](OCCP(=O)(c2ccc(C)cc2)c2ccc(C)cc2)CC[C@]2(CO2)[C@H]1[C@@]1(C)O[C@@H]1CC=C(C)C [Example 2, (2-(((3R,4S,5S,6R)-5-methoxy-4-((2R,3R)-2-methyl-3-(3-methylbut-2-en-1-yl)oxiran-2-yl)-1-oxaspiro[2.5]octan-6-yl)oxy)ethyl)di-p-tolylphosphine oxide] | – | – | – | 6.61 nM | – | –
– | CO[C@@H]1[C@H](OCCP(=O)(OC)OC)CC[C@]2(CO2)[C@H]1[C@@]1(C)O[C@@H]1CC=C(C)C [Example 4, dimethyl (2-(((3R,4S,5S,6R)-5-methoxy-4-((2R,3R)-2-methyl-3-(3-methylbut-2-en-1-yl)oxiran-2-yl)-1-oxaspiro[2.5]octan-6-yl)oxy)ethyl)phosphonate] | – | – | – | 3.47 nM | – | –
– | CCOP(=O)(CCO[C@@H]1CC[C@]2(CO2)[C@@H]([C@@]2(C)O[C@@H]2CC=C(C)C)[C@@H]1OC)OCC [Example 5, diethyl (2-(((3R,4S,5S,6R)-5-methoxy-4-((2R,3R)-2-methyl-3-(3-methylbut-2-en-1-yl)oxiran-2-yl)-1-oxaspiro[2.5]octan-6-yl)oxy)ethyl)phosphonate] | – | – | – | 6.17 nM | 97.7 nM | 18%
